Data on 19 compounds can be found in patent US20260062443A1 (ALEXION PHARMACEUTICALS, INC., priority 2022, published 2026).

The target in this assay is T1, Human complement C1s enzyme (Homo sapiens, UniProt P09871).
T1 sequence (P09871 438-688 limits assumed): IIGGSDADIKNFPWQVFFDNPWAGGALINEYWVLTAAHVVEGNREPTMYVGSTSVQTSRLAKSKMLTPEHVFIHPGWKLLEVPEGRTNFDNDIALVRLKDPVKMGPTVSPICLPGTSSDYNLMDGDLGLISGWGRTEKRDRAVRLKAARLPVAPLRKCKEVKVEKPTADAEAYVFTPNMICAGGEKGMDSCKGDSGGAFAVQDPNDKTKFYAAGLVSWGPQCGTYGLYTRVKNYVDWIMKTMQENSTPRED
T1 sequence (P09871 16-437 partner limits assumed): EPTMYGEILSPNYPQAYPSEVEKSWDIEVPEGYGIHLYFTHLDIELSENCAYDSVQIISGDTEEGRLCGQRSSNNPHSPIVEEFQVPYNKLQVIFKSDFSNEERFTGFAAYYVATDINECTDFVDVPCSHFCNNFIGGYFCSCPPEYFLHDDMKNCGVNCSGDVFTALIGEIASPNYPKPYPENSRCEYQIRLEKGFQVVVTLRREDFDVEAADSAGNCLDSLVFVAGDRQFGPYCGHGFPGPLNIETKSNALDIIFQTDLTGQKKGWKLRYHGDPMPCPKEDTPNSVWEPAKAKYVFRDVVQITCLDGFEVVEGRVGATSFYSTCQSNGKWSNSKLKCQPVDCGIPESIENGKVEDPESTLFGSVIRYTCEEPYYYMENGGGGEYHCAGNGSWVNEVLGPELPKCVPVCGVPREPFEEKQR
Briefly: Human C1s enzyme assay. The conditions noted are these: human complement C1s enzyme 1.16 nM, substrate Z-L-Lys-SBzl 100 μM, 5 min preincubation; read-out: IC50 (Stars), C1s Inhibiting Activity. In kind it is biochemical. As to the method:
Other standard complement assays are also available.
Human complement C1s enzyme (purified from human serum, Complement Technology, Inc.) at 1.16 nM final concentration was incubated with test compound at various concentrations for 5 min at room temperature in 50 mM Tris, 1 M NaCl, pH 7.5. A synthetic substrate Z-L-Lys-SBzl and DTNB (Ellman's reagent) were added to final concentrations of 100 μM each. Absorbance at 405 nm (A405) was recorded at 30 second intervals for 30 min using a microplate spectrophotometer. IC50 values were calculated by nonlinear regression of complement C1 s reaction rates as a function of test compound concentration.
ND indicates a compound for which the IC50 value is not determined.

As for `C[C@@]12C[C@@H]1N(C(=O)CNC(=O)c1ccc3c(c1)Oc1ccccc1S3)[C@H](C(=O)NCc1cc3cnccc3[nH]1)C2` [Compound 44, (1S,3S,5S)-N-((1H-pyrrolo[3,2-c]pyridin-2-yl)methyl)-5-methyl-2-((phenoxathiine-3-carbonyl)glycyl)-2-azabicyclo[3.1.0]hexane-3-carboxamide], the IC50 was under 0.1 µM.
Then `O=C(NCC(=O)N1CC2(C[C@H]1C(=O)NCc1cc3cncc(F)c3[nH]1)OCCO2)c1ccc2c(c1)Oc1ccccc1S2` [Compound 45, (S)-N-((7-fluoro-1H-pyrrolo[3,2-c]pyridin-2-yl)methyl)-7-((phenoxathiine-3-carbonyl)glycyl)-1,4-dioxa-7-azaspiro[4.4]nonane-8-carboxamide], with over 1 µM; and `Cn1c(CNC(=O)[C@@H]2CC3(CN2C(=O)CNC(=O)c2ccc4c(c2)Oc2ccccc2S4)OCCO3)cc2cnccc21` [Compound 46, (S)-N-((1-methyl-1H-pyrrolo[3,2-c]pyridin-2-yl)methyl)-7-((phenoxathiine-3-carbonyl)glycyl)-1,4-dioxa-7-azaspiro[4.4]nonane-8-carboxamide], with over 1 µM; and `C[C@@H](NC(=O)[C@@H]1CC2(CN1C(=O)CNC(=O)c1ccc3c(c1)Oc1ccccc1S3)OCCO2)c1cc2cnccc2[nH]1` [Compound 47, (S)-N-((R)-1-(1H-pyrrolo[3,2-c]pyridin-2-yl)ethyl)-7-((phenoxathiine-3-carbonyl)glycyl)-1,4-dioxa-7-azaspiro[4.4]nonane-8-carboxamide], with under 0.1 µM.
Turning to `O=C(NCC(=O)N1CC2(C[C@H]1C(=O)NCc1cc3nccnc3[nH]1)OCCO2)c1ccc2c(c1)Oc1ccccc1S2` [Compound 48, (S)-N-((5H-pyrrolo[2,3-b]pyrazin-6-yl)methyl)-7-((phenoxathiine-3-carbonyl)glycyl)-1,4-dioxa-7-azaspiro[4.4]nonane-8-carboxamide], the IC50 is over 1 µM.
Regarding `O=C(NCC(=O)N1CC2(C[C@H]1C(=O)NCc1nc3cnccc3[nH]1)OCCO2)c1ccc2c(c1)Oc1ccccc1S2` [Compound 49, (S)-N-((1H-imidazo[4,5-c]pyridin-2-yl)methyl)-7-((phenoxathiine-3-carbonyl)glycyl)-1,4-dioxa-7-azaspiro[4.4]nonane-8-carboxamide], the 50% inhibitory concentration (IC50) was over 1 µM.
Under `O=C(NCC(=O)N1CC2(C[C@H]1C(=O)NCc1cc3cnccc3o1)OCCO2)c1ccc2c(c1)Oc1ccccc1S2` [Compound 50, (S)-N-(furo[3,2-c]pyridin-2-ylmethyl)-7-((phenoxathiine-3-carbonyl)glycyl)-1,4-dioxa-7-azaspiro[4.4]nonane-8-carboxamide] stands 0.1 to 1 µM; under `Nc1nccc2ccc(CNC(=O)[C@@H]3CC4(CN3C(=O)CNC(=O)c3ccc5c(c3)Oc3ccccc3S5)OCCO4)cc12` [Compound 51, (S)-N-((1-aminoisoquinolin-7-yl)methyl)-7-((phenoxathiine-3-carbonyl)glycyl)-1,4-dioxa-7-azaspiro[4.4]nonane-8-carboxamide], over 1 µM; under `COc1ccc2[nH]c(CNC(=O)[C@@H]3CC4(CN3C(=O)CNC(=O)c3ccc5c(c3)Oc3ccccc3S5)OCCO4)cc2c1` [Compound 52, (S)-N-((5-methoxy-1H-indol-2-yl)methyl)-7-((phenoxathiine-3-carbonyl)glycyl)-1,4-dioxa-7-azaspiro[4.4]nonane-8-carboxamide], over 1 µM.
As for `O=C(NCC(=O)N1CC2(C[C@H]1C(=O)NCc1cc3cncc(Cl)c3[nH]1)OCCO2)c1ccc2c(c1)Oc1ccccc1S2` [Compound 53, (S)-N-((7-chloro-1H-pyrrolo[3,2-c]pyridin-2-yl)methyl)-7-((phenoxathiine-3-carbonyl)glycyl)-1,4-dioxa-7-azaspiro[4.4]nonane-8-carboxamide], the half-inhibitory concentration (IC50) is over 1 µM.
Take `O=C(NCC(=O)N1CC2(C[C@H]1C(=O)NCc1cc3cnccc3s1)OCCO2)c1ccc2c(c1)Oc1ccccc1S2` [Compound 54, (S)-7-((phenoxathiine-3-carbonyl)glycyl)-N-(thieno[3,2-c]pyridin-2-ylmethyl)-1,4-dioxa-7-azaspiro[4.4]nonane-8-carboxamide]: the IC50 was under 0.1 µM.
For the compound `O=C(NCC(=O)N1CC2(C[C@H]1C(=O)NCc1cc3cc(Br)ccc3[nH]1)OCCO2)c1ccc2c(c1)Oc1ccccc1S2` [Compound 55, (S)-N-((5-bromo-1H-indol-2-yl)methyl)-7-((phenoxathiine-3-carbonyl)glycyl)-1,4-dioxa-7-azaspiro[4.4]nonane-8-carboxamide], the IC50 was over 1 µM.
As to `C[C@@H](NC(=O)[C@@H]1C[C@]2(C)C[C@@H]2N1C(=O)CNC(=O)CCCOc1ccccc1)c1cc2cnccc2[nH]1` [Compound 56, (1S,3S,5S)-N-((R)-1-(1H-pyrrolo[3,2-c]pyridin-2-yl)ethyl)-5-methyl-2-((4-phenoxybutanoyl)glycyl)-2-azabicyclo[3.1.0]hexane-3-carboxamide], the IC50 was in the range of 0.1 to 1 µM.
Consider `C[C@H](NC(=O)[C@@H]1C[C@]2(C)C[C@@H]2N1C(=O)CNC(=O)CCCOc1ccccc1)c1cc2cnccc2[nH]1` [Compound 57, (1S,3S,5S)-N-((S)-1-(1H-pyrrolo[3,2-c]pyridin-2-yl)ethyl)-5-methyl-2-((4-phenoxybutanoyl)glycyl)-2-azabicyclo[3.1.0]hexane-3-carboxamide], for which the IC50 is over 1 µM.
Under `C[C@@]12C[C@@H]1N(C(=O)CNC(=O)CCCOc1ccccc1)[C@H](C(=O)NCc1cc3cnccc3[nH]1)C2` [Compound 58, (1S,3S,5S)-N-((1H-pyrrolo[3,2-c]pyridin-2-yl)methyl)-5-methyl-2-((4-phenoxybutanoyl)glycyl)-2-azabicyclo[3.1.0]hexane-3-carboxamide] stands under 0.1 µM; under `C[C@@]12C[C@@H]1N(C(=O)CNC(=O)CCCOc1ccccc1)[C@H](C(=O)NCCCn1ccnc1)C2` [Compound 59, (1S,3S,5S)-N-(3-(1H-imidazol-1-yl)propyl)-5-methyl-2-((4-phenoxybutanoyl)glycyl)-2-azabicyclo[3.1.0]hexane-3-carboxamide], over 1 µM; under `C[C@@]12C[C@@H]1N(C(=O)CNC(=O)CCCOc1ccccc1)[C@H](C(=O)N[C@@H]1CCN(C(=O)CCN)C1)C2` [Compound 60, (1S,3S,5S)-N-((R)-1-(3-aminopropanoyl)pyrrolidin-3-yl)-5-methyl-2-((4-phenoxybutanoyl)glycyl)-2-azabicyclo[3.1.0]hexane-3-carboxamide], over 1 µM.
Then `C[C@@]12C[C@@H]1N(C(=O)CNC(=O)CCCOc1ccccc1)[C@H](C(=O)N[C@@H]1CCN(Cc3c[nH]cn3)C1=O)C2` [Compound 61, (1S,3S,5S)-N-((R)-1-((1H-imidazol-4-yl)methyl)-2-oxopyrrolidin-3-yl)-5-methyl-2-((4-phenoxybutanoyl)glycyl)-2-azabicyclo[3.1.0]hexane-3-carboxamide], with over 1 µM; and `C[C@@]12C[C@@H]1N(C(=O)CNC(=O)CCCOc1ccccc1)[C@H](C(=O)NC1(c3ccc4c(c3)CNCC4)CC1)C2` [Compound 62, (1S,3S,5S)-5-methyl-2-((4-phenoxybutanoyl)glycyl)-N-(1-(1,2,3,4-tetrahydroisoquinolin-7-yl)cyclopropyl)-2-azabicyclo[3.1.0]hexane-3-carboxamide], with over 1 µM.
